# Source: BindingDB's records for doi:10.1021/jm00010a019 (Boehringer Ingelheim Pharmaceuticals, 1995)
# Molecular target: T1, Renin (Homo sapiens, UniProt P00797)
# T1 sequence (P00797 whole entry): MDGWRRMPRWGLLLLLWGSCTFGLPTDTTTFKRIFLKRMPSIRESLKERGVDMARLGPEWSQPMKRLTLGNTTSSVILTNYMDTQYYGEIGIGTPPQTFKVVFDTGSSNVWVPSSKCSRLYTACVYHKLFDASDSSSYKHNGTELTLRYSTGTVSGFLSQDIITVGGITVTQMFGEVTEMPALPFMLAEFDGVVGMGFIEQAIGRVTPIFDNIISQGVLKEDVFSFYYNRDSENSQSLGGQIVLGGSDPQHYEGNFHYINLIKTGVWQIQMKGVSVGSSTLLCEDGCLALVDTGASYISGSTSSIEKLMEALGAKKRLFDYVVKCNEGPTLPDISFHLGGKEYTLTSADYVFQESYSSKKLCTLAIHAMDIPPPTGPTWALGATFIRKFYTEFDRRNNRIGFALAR
# Assay: Component acylation rate constant by the compound against Renin was determined
row,Compound,koff [s⁻¹]
1,"CC(C)C[C@H](O)[C@H](O)[C@H](CC1CCCCC1)NC(=O)[C@@H](CC(=O)N(CC(=O)N(C)CCc1ccccn1)CC1CCCCC1)Cc1csc(N)n1 [2-(2-Amino-thiazol-4-ylmethyl)-N*4*-cyclohexylmethyl-N*1*-(1-cyclohexylmethyl-2,3-dihydroxy-5-methyl-hexyl)-N*4*-{[methyl-(2-pyridin-2-yl-ethyl)-carbamoyl]-methyl}-succinamide(BILA 2157 BS)]",0.00028
2,"COC1(CN(CC(=O)N(C)CCc2ccccn2)C(=O)C[C@@H](Cc2csc(N)n2)C(=O)N[C@@H](CC2CCCCC2)[C@@H](O)[C@@H](O)CC(C)C)CCCCC1 [(R)-2-(2-Amino-thiazol-4-ylmethyl)-N*1*-((1S,2R,3S)-1-cyclohexylmethyl-2,3-dihydroxy-5-methyl-hexyl)-N*4*-(1-methoxy-cyclohexylmethyl)-N*4*-{[methyl-(2-pyridin-2-yl-ethyl)-carbamoyl]-methyl}-succinamide]",0.00175
3,"CC(C)C[C@H](O)[C@H](O)[C@H](CC1CCCCC1)NC(=O)[C@@H](CC(=O)N(CC(=O)N(C)CCc1ccccn1)CC1(C)CCCCC1)Cc1csc(N)n1 [(R)-2-(2-Amino-thiazol-4-ylmethyl)-N*1*-((1S,2R,3S)-1-cyclohexylmethyl-2,3-dihydroxy-5-methyl-hexyl)-N*4*-(1-methyl-cyclohexylmethyl)-N*4*-{[methyl-(2-pyridin-2-yl-ethyl)-carbamoyl]-methyl}-succinamide]",0.000569
4,"CC(C)C[C@H](O)[C@H](O)[C@H](CC1CCCCC1)NC(=O)[C@@H](CC(=O)N(CC(=O)N(C)CCN(C)C(=O)N1CCOCC1)[C@@H](C)c1ccccc1)Cc1csc(N)n1 [(R)-2-(2-Amino-thiazol-4-ylmethyl)-N*1*-((1S,2R,3S)-1-cyclohexylmethyl-2,3-dihydroxy-5-methyl-hexyl)-N*4*-[(methyl-{2-[methyl-(morpholine-4-carbonyl)-amino]-ethyl}-carbamoyl)-methyl]-N*4*-((S)-1-phenyl-ethyl)-succinamide]",0.00133
5,"CC(C)C[C@H](O)[C@H](O)[C@H](CC1CCCCC1)NC(=O)[C@@H](CC(=O)N(CC(=O)N(C)CCN1CCOCC1)[C@@H](C)c1ccccc1)Cc1csc(N)n1 [(R)-2-(2-Amino-thiazol-4-ylmethyl)-N*1*-((1S,2R,3S)-1-cyclohexylmethyl-2,3-dihydroxy-5-methyl-hexyl)-N*4*-{[methyl-(2-morpholin-4-yl-ethyl)-carbamoyl]-methyl}-N*4*-((S)-1-phenyl-ethyl)-succinamide]",0.00481
6,"CC(C)C[C@H](O)[C@H](O)[C@H](CC1CCCCC1)NC(=O)[C@@H](CC(=O)N(CC(=O)N(C)CCc1ccccn1)[C@@H](C)c1ccccc1)Cc1csc(N)n1 [(R)-2-(2-Amino-thiazol-4-ylmethyl)-N*1*-((1S,2R,3S)-1-cyclohexylmethyl-2,3-dihydroxy-5-methyl-hexyl)-N*4*-{[methyl-(2-pyridin-2-yl-ethyl)-carbamoyl]-methyl}-N*4*-((S)-1-phenyl-ethyl)-succinamide]",0.00135
7,"CC(C)C[C@H](O)[C@H](O)[C@H](CC1CCCCC1)NC(=O)[C@@H](CC(=O)N(CC(=O)N(C)CCC(=O)N1CCOCC1)[C@@H](C)c1ccccc1)Cc1csc(N)n1 [(R)-2-(2-Amino-thiazol-4-ylmethyl)-N*1*-((1S,2R,3S)-1-cyclohexylmethyl-2,3-dihydroxy-5-methyl-hexyl)-N*4*-{[methyl-(3-morpholin-4-yl-3-oxo-propyl)-carbamoyl]-methyl}-N*4*-((S)-1-phenyl-ethyl)-succinamide]",0.0013
8,"CC(C)C[C@H](O)[C@H](O)[C@H](CC1CCCCC1)NC(=O)[C@@H](CC(=O)N(CC(=O)N(C)CCc1ccccn1)CC1CCCCCC1)Cc1csc(N)n1 [(R)-2-(2-Amino-thiazol-4-ylmethyl)-N*4*-cycloheptylmethyl-N*1*-((1S,2R,3S)-1-cyclohexylmethyl-2,3-dihydroxy-5-methyl-hexyl)-N*4*-{[methyl-(2-pyridin-2-yl-ethyl)-carbamoyl]-methyl}-succinamide]",0.000234
